Assay results: patent US9233095B2, “Small molecule RNase inhibitors and methods of use” (University of Rochester, priority 2011, dated 2016)
Where “and” joins values, the source holds several entries; their conditions need not be identical. Equal entries are not always repeated.

How the values were obtained:
[1] = biological target: T1, S. aureus RnpA (Staphylococcus aureus, UniProt P0A0H5); test: gel-based RnpA-mediated spa mRNA degradation, inhibitory titration; assay type: biochemical; conditions: 1 pmol spa mRNA, 20 pmol RnpA, one hour at 37° C.; read-out: IC50 of RnpA-mediated RNA degradation
T1 construct: hexahistidine-tag (N); made in house; host or cells: E. coli BL21 (DE3)
Protocol: Specifically, members of the ActiProbe-25K and Natural Product libraries (29,940 compounds total; TimTec Inc.; Newark, Del.) were screened for small molecule inhibitors of S. aureus RnpA mediated total bacterial RNA degradation. All reactions (50 μl) were performed in 96-well format and contained 20 pmol RnpA, 200 ng S. aureus total RNA, and about 5 μM of each compound in 1× reaction buffer (2 mM NaCl, 2 mM MgCl2, 50 mM Tris-HCl, pH 6.0). Mixtures were incubated at 37° C. for 20 min at which time Quant-iT RiboGreen® (100 μl; Invitrogen) was added to quantify the amount of RNA substrate remaining. Percent enzyme inhibition was calculated as remaining substrate/starting substrate*100. For inhibitory titration assays, 1 pmol of spa mRNA was incubated with 20 pmol RnpA alone (positive control) or in the presence of increasing amounts (0, 25, 50, 100, 125, 150, 200, 250, and 500 μM) RNP1000 for one hour at 37° C. Following this, 20 μl of each reaction mixture were subjected to electrophoresis in a 1.2% formaldehyde-containing agarose gel and visualized by ethidium bromide staining.

[2] = tested on: A. baumannii; test: CLSI broth microdilution MIC; assay type: cell-based, Acinetobacter baumannii
Description: In some examples, compounds can be further assayed using the Mueller Hinton (MH) broth antibacterial assay as specified by the Clinical and Laboratory Standards Institute MIC broth microdilution protocol (see Methods for Dilution Antimicrobial Susceptibility Tests for Bacteria That Grow Aerobically; Approved Standard, In The Clinical and Laboratory Standards Institute (CLSI, formerly NCCLS), 7th ed., January 2006, 26 (2), M7-A7; see also Performance Standards for Antimicrobial Susceptibility Testing; Eighteenth Informational Supplement, In The Clinical and Laboratory Standards Institute (CLSI, formerly NCCLS), January 2008, 28 (1), M100-S18).
With the exception of RN4220-derivatives, in vitro activities of RNPA1000 against bacteria were determined by the broth microdilution method according to the Clinical and Laboratory Standards Institute (CLSI) guidelines using cation adjusted Mueller-Hinton broth or MH broth supplemented with 5% lysed horse blood (for testing Streptotococcus spp.). Microtiter plates containing serial dilutions of RNPA1000 (0, 4, 8, 16, 32, 64, and 128 μg/ml) were inoculated with 10^5 colony forming units (CFU)/ml and incubated for 18 hr at 37° C. […] The MIC value for each S. aureus strain was determined to be the median score of replicate measurements (n=5). Wells containing concentrations of RNPA1000≧MIC were plated for minimal bactericidal measurement. Where possible, experiments with VRSA strains were performed in a laminar flow hood to minimize potential for equipment contamination. For RN4220 cells containing plasmid vector (pCN51), RnpA overproducing plasmid (pRNPA-S) or RnpA underproducing plasmid (pRNPA-A.S.) in vitro antimicrobial activity of RNPA1000 was performed by the microdilution method as described above, except that cells were grown in Tryptic Soy Broth medium supplemented with 2.5 μM CdCl2 and 0, 1, 2, 4, 8, 16, 32, 64, or 128 μg/ml RNPA1000. Time-kill assays were also performed to monitor the antimicrobial properties of RNPA1000 for S. aureus strain UAMS-1 in the absence and presence of 0.25, 0.5, 2, and 4 times the strain's MIC for oxacillin (1 μg/ml), rifampicin (0.5 μg/ml), vancomycin (2 μg/ml), or daptomycin (1 μg/ml). The indicated amount of RNPA1000 and/or commercial antibiotic were added to mid-exponential phase (2×10^8 cfu/ml) S. aureus strain UAMS-1 cells and incubated at 37° C. Aliquots were removed at 0, 2, 4, 8, and 24 hr post-antimicrobial challenge, serial diluted, and plated to enumerate resulting cfu/ml. All time-kill assays were repeated at least 3 times.

[3] = tested on: biofilm-associated S. aureus strain UAMS-1; test: in vitro catheter biofilm assay; assay type: cell-based
Protocol: To determine this, in vitro biofilm assays were performed as described in Weiss et al., Antimicrob Agents Chemother, 53: 2475-2482 (2009). Briefly, 1 cm segments of 14-gauge fluorinated ethylene propylene Introcan Safety Catheters (B. Braun, Bethlehem, Pa.) were coated with human plasma and placed in individual wells of a 12-well microtiter plate containing 2 ml biofilm medium and S. aureus strain UAMS-1 at a final OD600 nm of 0.05. Following overnight incubation at 37° C. catheters were removed, rinsed in phosphate buffered saline (PBS), and transferred to fresh biofilm medium containing 0, 5, 10, or 20 times the S. aureus MIC for RNPA1000. Catheters exposed to each dose (n=3) were recovered daily over a period of 3 days, with the medium being replaced each day. After each recovery time point catheters were rinsed in PBS and adherent bacteria were enumerated by sonication and plating. Analysis of variance (ANOVA) of logarithmically-transformed bacterial count data was used to evaluate the effect of RNPA1000 exposure.

[4] = tested on: S. aureus strain Smith; test: acute lethal model of infection; assay type: in vivo, CD-1 mice; conditions: for % Survival: 5 days, one value per experiment
Protocol: Because RNPA1000 was not toxic during short- and only mildly toxic during extended-HepG2 exposure, it could serve as an appropriate tool to assess whether RnpA-inhibitory molecules are efficacious in a systemic mouse infection model. […] RNPA1000 was solubilized in 1:1 mixture of DMSO and PEG400; Vancomycin was prepared in water. Animals (5/dose group) were administered 16, 64, and 256 mg/kg or 0.25, 1, 4, and 16 mg/kg of RNPA1000 or Vancomycin, respectively, at 30 min post infection by subcutaneous injection (0.2 ml). The percent surviving animals receiving no treatment, a single dose of Vancomycin, or RnpA-inhibitor was recorded daily over the course of the study (5 days).
Percent survival refers to a consensus of surviving animals following 5 days post-intraperitoneal S. aureus injection and RNPA1000 administration. The number in parentheses indicates the number of times the experiment was repeated. Each member of non-treated control mice expired within 24 hr bacterial inoculation (0 mg/kg). Vancomycin served as a positive control.

Q: How did the IC50 [1] turn out when `Cc1cc(/C=C(/C#N)C(=O)Nc2cccc(Br)c2)c(C)n1-c1ccc(C(=O)O)cc1` [RNPA1000] was run?
A: The IC50 was 100 to 125 µM.

Q: What about the “effect of efflux inhibitor reserpine on RNPA1000 susceptibility” value [2] of the same compound?
A: Its value is “no effect”.

Q: What about the effect on growth [2] of the same compound?
A: The effect on growth was “did not affect”.

Q: What about the MIC ([2]; A. baumannii Isolate 2) of the same compound?
A: The MIC was over 64 µg/mL.

Q: And the MIC ([2]; A. baumannii Isolate 3)?
A: The MIC was over 64 µg/mL.

Q: And the MIC ([2]; A. baumannii Isolate 4)?
A: Its MIC is over 64 µg/mL.

Q: And the MIC ([2]; A. baumannii Isolate 5)?
A: Its MIC is over 64 µg/mL.

Q: And the MIC ([2]; A. baumannii Isolate 5 + reserpine)?
A: Its MIC is over 64 µg/mL.

Q: What about the MIC ([2]; Acinetobacter baumannii) of the same compound?
A: Its MIC is over 64 µg/mL.

Q: What about the bacterial clearance ([3]; 5, 10 or 20× MIC, up to 3 days) of the same compound?
A: The bacterial clearance was “never achieved”.

Q: And the “decrease in bacterial burden” value ([3]; 5× MIC for 24 hr)?
A: The value was 3 log.

Q: And the “maximal reduction in biofilm-associated bacteria” value ([3]; up to 20× MIC, up to 3 days)?
A: The value was 5 log.

Q: What about the “% Survival” value ([4]; RNPA1000 16 mg/kg s.c. 30 min post infection) of the same compound?
A: The value was 20; 20(2) %.

Q: And the “% Survival” value ([4]; RNPA1000 64 mg/kg s.c. 30 min post infection, 64 mg/kg)?
A: Its value is 40%.

Q: What about the “% Survival” value ([4]; RNPA1000 256 mg/kg s.c. 30 min post infection, 256 mg/kg) of the same compound?
A: Its value is 60% and 40%.

Q: What about the ED50 ([4]; Staphylococcus aureus, in Mus musculus, sc, single dose, read-out: median effective dose (ED50)) of the same compound?
A: The ED50 was 64 to 256 mg/kg.
